Test results taken from ChEMBL document CHEMBL1133965, “Total synthesis of Calebin-A, preparation of its analogues, and their neuronal cell protectivity against beta-amyloid insult” (2001).
In brackets after ≈: the same amount, converted by molar mass.

Legend:
[1] = system: PC-12; test: Evaluated for neuronal cell protectivity against beta-amyloid (25,35) insult towards PC12 rat pheochromocytoma cell; No protection; type: functional
[2] = system: IMR-32; test: (§1) Evaluated for neuronal cell protectivity against beta-amyloid (25,35) insult towards IMR-32 human neuroblastoma cell; No protection; type: functional
[3] = system: PC-12; test: Evaluated for neuronal cell protectivity against beta-amyloid (25,35) insult towards PC12 rat pheochromocytoma cell; type: functional; conditions: read-out: ED50 (the source's name)
[4] = system: IMR-32; test: Evaluated for neuronal cell protectivity against beta-amyloid (25,35) insult towards IMR-32 human neuroblastoma cell; type: functional; conditions: read-out: ED50 (the source's name)
[5] = system: IMR-32; test: as §1; type: functional, cell-based
[6] = system: PC-12; test: Evaluated for neuronal cell protectivity against beta-amyloid (25,35) insult towards PC12 rat pheochromocytoma cell

Compound | ED50 [1] | ED50 [2] | also measured
COc1ccc(/C=C/C(=O)OCC(=O)/C=C/c2ccc(O)c(OC)c2)cc1 | No protection | No protection | 
COc1cc(/C=C/C(=O)COC(=O)/C=C/c2ccc(O)c(OC)c2)ccc1O [CALEBI A] |  |  | EC50 [3]: 1 µg/mL (≈ 2.6 µM); EC50 [4]: 1.4 µg/mL (≈ 3.64 µM)
COc1cc(/C=C/C(=O)COC(=O)/C=C/c2ccc3c(c2)OCO3)ccc1O | No protection | No protection | 
COc1cc(/C=C/C(=O)COC(=O)/C=C/c2ccc(OC(C)=O)c(OC(C)=O)c2)ccc1O | No protection |  | ED50 [5]: No protection
COc1cc(/C=C/C(=O)COC(=O)/C=C/c2ccc(O)c(O)c2)ccc1O |  |  | EC50 [3]: 7.3 µg/mL (≈ 19.7 µM); EC50 [4]: 7.9 µg/mL (≈ 21.3 µM)
COc1cc(/C=C/C(=O)CC(=O)/C=C/c2ccc(O)c(OC)c2)ccc1O [CURCUMIN] |  |  | EC50 [3]: 7.1 µg/mL (≈ 19.3 µM); EC50 [4]: 7.4 µg/mL (≈ 20.1 µM)
COc1cc(/C=C/C(=O)COC(=O)/C=C/c2cccc(O)c2)ccc1O |  |  | EC50 [3]: 13.2 µg/mL (≈ 37.3 µM); EC50 [4]: 15.8 µg/mL (≈ 44.6 µM)
COc1cc(/C=C/C(=O)COC(=O)/C=C/c2ccc(Br)cc2)ccc1O | No protection | No protection | 
COc1cc(/C=C/C(=O)COC(=O)/C=C/c2ccc(Cl)cc2)ccc1O | No protection | No protection | 
COc1cc(/C=C/C(=O)COC(=O)/C=C/c2ccc(C)cc2)ccc1O | No protection | No protection | 
COc1cc(/C=C/C(=O)COC(=O)/C=C/c2ccccc2)ccc1O | No protection | No protection | 
COc1cccc(/C=C/C(=O)OCC(=O)/C=C/c2ccc(O)c(OC)c2)c1 | No protection | No protection | 
COc1cc(/C=C/C(=O)COC(=O)/C=C/c2ccc(OC(C)=O)cc2)ccc1O | No protection | No protection | 
COc1cc(/C=C/C(=O)COC(=O)/C=C/c2ccc(O)cc2)ccc1O |  |  | ED50 [6]: 0.7 µg/mL (≈ 1.98 µM); EC50 ([2]; read-out: ED50 (the source's name)): 1.2 µg/mL (≈ 3.39 µM)
COc1cc(/C=C/C(=O)COC(=O)/C=C/c2cccc(OC(C)=O)c2)ccc1O | No protection | No protection | 
VITAMIN E | No protection | No protection | 
